Results: patent US10617735B2, “Methods and compositions for preserving retinal ganglion cells” (Massachusetts Eye and Ear Infirmary, priority 2010, dated 2020)
Where a SMILES comes first, the peptide text is derived from it. The star is where a group is joined. Cbz = O=C(OCc1ccccc1)*; CH2F = FC*

Assays:
Format in all cases: in vivo, mouse
TNF-α = TNF-α level in the retina after ON injury (quantitative real-time RT-PCR); conditions: one day after ON injury; intravitreal Z-VAD (300 uM) and/or Nec-1 (400 uM)
Description: Total RNA extraction, cDNA synthesis and PCR amplification have been performed as previously reported (Kayama et al., (2010) OPHTHALMIC RES 43:79-91). A real-time PCR assay was performed with Prism 7700 Sequence Detection System (Applied Biosystems, Foster City, Calif.). The primers are shown below in Table 1.
For relative comparison of each gene, the Ct value of real-time PCR data was analyzed with the ΔΔCt method and normalized to an endogenous control ([…].
To investigate whether TNF-α is involved in RGC cell death in mice subjected to optic nerve (ON) injury (induced by physical injury to the optic nerve), TNF-α level in the retina was measured using quantitative real-time RT-PCR. As depicted in FIG. 2A, at one day after ON injury, TNF-α mRNA levels increased almost 10- to 13-fold relative to non-injured mice.

[1] = system: retinal ganglion cells (RGCs); experiment: TUNEL staining after ON injury
Source text: Two mouse models of RGC death were utilized: optic nerve (ON) injury and N-methyl-D-aspartate (NMDA) retinal excitotoxicity. ON injury leads to RGC death as a result of primary damage to the axons, with its ensuing disruption of retrograde axonal transport (Libby et al., (2005) PLOS GENET 1:17-26) and is used as an RGC death model. In the ON injury model, mice were anesthetized and subjected to severe crush injury at 1-2 mm distance from the eyeball for 15 seconds using cross-action forceps taking special care not to interfere with the blood supply (Levkovitch-Verbin, (2004) EYE 18:1066-1074). […] Soon after injury, each group received an intravitreal injection (2 μl) with the respective compounds. In the NMDA retinal excitotoxicity model, NMDA (2 μl of a 0.1M stock; Sigma-Aldrich) was injected intravitreously in combination with ZVAD, Nec-1, or ZVAD plus Nec-1 and mice were separated into the aforementioned 4 groups. The dose of these compounds was selected based on previous studies (Karl et al., (2008) PROC NATL ACAD SCI USA 105:19508-19513; Knoferle et al., (2010) PROC NATL ACAD SCI USA 107:6064-6069; Nakazawa et al., (2006) J NEUROSCI 26:12633-12641; Rosenbaum et al., (2010) J NEUROSCI RES 88:1569-1576).
Intravitreal injections were performed as follows. Briefly, the tip of a 33 gauge needle (Hamilton, Reno, Nev.) was carefully inserted through the sclera into the intravitreal space to reduce intraocular pressure. Then, the needle was extracted, loaded with compounds and tangentially reinserted through the sclera into the intravitreal space, inducing a self-sealing wound tunnel. After injection, the absence of choroidal bleeding was confirmed. At specified times after injury, mice were sacrificed with an overdose of sodium pentobarbital, and eyes were enucleated.

[2] = system: retinal ganglion cells (RGCs); experiment: Propidium iodide (PI) staining of necrotic cells in GCL after ON injury; conditions: one day after ON injury, wild-type mice
Source text: To investigate further the underlying mechanism of why Z-VAD fails to prevent RGC death after ON injury, propidium iodide (PI) was used to detect necrotic cells in GCL (Unal Cevik et al., (2010)). At one day after ON injury, Z-VAD administration increased the number of PI positive cells compared with vehicle (FIGS. 4A and 4B).

[3] = system: Apoptosis inducing factor (AIF); experiment: AIF immunostaining with TUNEL after ON injury (nuclear translocation); conditions: one day after ON injury
Description: Apoptosis inducing factor (AIF) is a mitochondrial flavoprotein which is involved in initiating caspase-independent apoptosis. After loss of mitochondrial membrane potential, AIF translocates into the nucleus, induces DNA fragmentation and peripheral chromatin condensation (Susin et al., (1999), Susin et al., (2000), Candé et al., (2004)). To analyze whether mitochondrial release of AIF is associated with RGC death after ON injury, immunostaining for AIF was performed together with TUNEL assay. One day after ON injury, there was a prominent nuclear translocation of AIF, which was not affected by pan-caspase inhibition (FIGS. 7A and 7B).

[4] = system: retinal ganglion cell axons; experiment: Optic nerve crush model: axon regeneration (βIII-tubulin staining of longitudinal optic nerve sections); conditions: 14 days, intravitreal ZVAD 300 μM and/or Nec-1 4 mM
Description: Mice were subjected to optic nerve crush surgery. Specifically, animals were anesthetized with an intraperitoneal injection of ketamine (60-80 mg/kg: Phoenix Pharmaceutical, St. Joseph, Mo.) and xylazine (10-15 mg/kg: Bayer, Shawnee Mission, K A). Animals were positioned in a stereotaxic apparatus and a 1-1.5 cm incision was made in the skin above the right orbit. Under microscopic illumination, the lachrymal glands and extraocular muscles were resected to expose 3-4 mm of the optic nerve. The epineurium was slit open along the long axis, and the nerve was crushed 2 mm behind the eye with angled jeweler's forceps (Dumont #5) for 10 seconds, avoiding injury to the ophthalmic artery. Nerve injury was verified by the appearance of a clearing at the crush site, while the vascular integrity of the retina was evaluated by fundoscopic examination. Cases in which the vascular integrity of the retina was in question were excluded from the study. […]
Axon regeneration was assessed by obtaining longitudinal sections of the optic nerve and counting the number of axons at pre-specified distances from the injury site. […] Axons were counted manually in at least eight longitudinal sections per case at pre-specified distances from the injury site. The number of regenerating axons at various distances are determined as described previously (Leon et al., (2000) J NEUROSCI 20:4615-4626). […]

SMILES: COC(=O)CC(NC(=O)C(C)NC(=O)C(NC(=O)OCc1ccccc1)C(C)C)C(=O)CF (stereo not drawn) [Z-VAD, Benzyloxycarbonyl-Val-Ala-Asp(OMe)-fluoromethylketone] (Cbz-Val-Ala-Asp(OMe)-CH2F; configuration not given here)
- increase of TNF-α levels after ON injury (TNF-α): did not affect
- TUNEL positive cells ([1]; RIP3−/− mice, one day after ON injury): marked decrease in TUNEL positive cells
- TUNEL positive cells (apoptotic RGCs) ([1]; wild-type mice, day one after ON injury, intravitreal Z-VAD (300 uM) and/or Nec-1 (400 uM)): failed to rescue RGCs
- number of PI positive cells [2]: increased
- nuclear translocation of AIF [3]: not affected
- axon regeneration (βIII-tubulin axon staining beyond injury site) [4]: minimal effects on axon regeneration
